Measured values published in PMC8081293 (Frontiers in Chemistry, 2021).
Like-named read-outs stand apart in the source and are kept apart here.

Assays:
Experiment in all cases: acetophenone formation at […] nm, Michaelis-Menten fit
Assay type in all cases: biochemical
Conditions in all cases: 0.1 mM PLP, 0.25% DMSO, 50 mM sodium phosphate pH 8.0, 25°C
At-ATA [1] = target: T1, At-ATA (Aspergillus terreus, UniProt Q0C8G1, E133Q)
T1 construct: gene ATEG_10023

At-ATA [2] = target: T2, At-ATA (Aspergillus terreus, UniProt Q0C8G1, D224K)
T2 construct: gene ATEG_10023

At-ATA [3] = target: T3, At-ATA (Aspergillus terreus, UniProt Q0C8G1, E253A)
T3 construct: gene ATEG_10023

[4] = read-out: Kmpyruvate /, 2.5 mM 1-(R)-PEA
[5] = read-out: Km1-(R)-PEA /, 2.5 mM pyruvate

| SMILES | Km (At-ATA [1]; [4]) [µM] | Km (At-ATA [2]; [4]) [µM] | Km (At-ATA [3]; [4]) [µM] | Km (At-ATA [1]; [5]) [µM] | Km (At-ATA [2]; [5]) [µM] | Km (At-ATA [3]; [5]) [µM] |
| --- | --- | --- | --- | --- | --- | --- |
| CC(=O)C(=O)O [pyruvate] | 500 ± 10 | 350 ± 20 | 690 ± 10 |  |  |  |
| C[C@@H](N)c1ccccc1 [1-(R)-PEA] |  |  |  | 160 ± 10 | 140 ± 10 | 170 ± 20 |
